Source: the supplement of paper PMC10307832

Legend:
Assay in all cases: relative viability (nuclei count vs DMSO), 5 days (fraction); higher = more cells survive
[1] = compound: CCC1=CN=CN=C1N2CCN(CC2)CC3=NC4=C(N3)C=C(C=C4)C(F)(F)F + COc1cccc2cc(-c3nc([C@H]4CC[C@H](C(=O)O)CC4)n4ncnc(N)c34)[nH]c12 [OSI-027] (partner 0.5 µM)
Procedure, shortened: (§1)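 The day after seeding in 1536-well plates, lung cancer cell lines were treated by pin tool with a single drug, or with a fixed anchor-drug dose together with five library-drug doses (not always all listed) in √10 steps. After 5 days, a combined fix-and-stain solution (final 0.05% Triton X-100, 1% formaldehyde, 1 ug/ml Hoechst) was added. Nuclei counted on 4× images gave relative viability as treated counts over vehicle counts, reported as the median of duplicate plates.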

[2] = compound: CCC1=CN=CN=C1N2CCN(CC2)CC3=NC4=C(N3)C=C(C=C4)C(F)(F)F + O=C(CCCCCCC(=O)Nc1ccccc1)NO [Vorinostat] (partner 1 µM)
Procedure, shortened: as §1

[3] = compound: CCn1c(-c2nonc2N)nc2cnc(Oc3cccc(NC(=O)c4ccc(OCCN5CCOCC5)cc4)c3)cc21 + COc1cccc2cc(-c3nc([C@H]4CC[C@H](C(=O)O)CC4)n4ncnc(N)c34)[nH]c12 [OSI-027] (partner 0.5 µM)
Procedure, shortened: as §1

Mirin + Alpelisib = compound: N=C1NC(=O)/C(=C/c2ccc(O)cc2)S1 [Mirin] + Cc1nc(NC(=O)N2CCC[C@H]2C(N)=O)sc1-c1ccnc(C(C)(C)C(F)(F)F)c1 [Alpelisib] (partner 2 µM)
Procedure, shortened: as §1

| Cell Line | relative viability ([1]; first compound 0.04 µM) | relative viability ([1]; first compound 0.1265 µM) | relative viability ([1]; first compound 0.4 µM) | relative viability ([1]; first compound 1.265 µM) | relative viability ([1]; first compound 4 µM) | relative viability ([2]; first compound 0.04 µM) | relative viability ([2]; first compound 0.1265 µM) | relative viability ([2]; first compound 0.4 µM) | relative viability ([2]; first compound 1.265 µM) | relative viability ([2]; first compound 4 µM) | relative viability ([3]; first compound 0.04 µM) | relative viability ([3]; first compound 0.1265 µM) | relative viability ([3]; first compound 0.4 µM) | relative viability ([3]; first compound 1.265 µM) | relative viability ([3]; first compound 4 µM) | relative viability (Mirin + Alpelisib; first compound 0.25 µM) | relative viability (Mirin + Alpelisib; first compound 0.7906 µM) | relative viability (Mirin + Alpelisib; first compound 2.5 µM) | relative viability (Mirin + Alpelisib; first compound 7.906 µM) | relative viability (Mirin + Alpelisib; first compound 25 µM) |
| --- | --- | --- | --- | --- | --- | --- | --- | --- | --- | --- | --- | --- | --- | --- | --- | --- | --- | --- | --- | --- |
| COR-L23 | 0.777 | 0.783 | 0.605 | 0.635 | 0.7 | 0.464 | 0.523 | 0.404 | 0.44 | 0.462 | 0.686 | 0.54 | 0.326 | 0.207 | 0.144 | 0.847 | 0.822 | 0.758 | 0.715 | 0.682 |
| NCI-H1355 | 0.433 | 0.406 | 0.373 | 0.327 | 0.391 | 0.643 | 0.575 | 0.584 | 0.585 | 0.644 | 0.477 | 0.385 | 0.197 | 0.306 | 0.312 | 0.858 | 0.864 | 0.754 | 0.915 | 0.727 |
| NCI-H1666 | 0.736 | 0.81 | 0.816 | 0.803 | 0.873 | 1.04 | 1.04 | 0.843 | 0.922 | 0.994 | 1.02 | 0.995 | 0.74 | 0.796 | 0.668 | 0.869 | 1.01 | 0.884 | 0.826 | 0.528 |
| EPLC-272H | 0.255 | 0.302 | 0.264 | 0.308 | 0.276 | 0.311 | 0.598 | 0.373 | 0.392 | 0.351 | 0.363 | 0.339 | 0.246 | 0.234 | 0.247 | 0.89 | – | 1.02 | 0.779 | 0.815 |
| NCI-H1651 | 0.805 | 0.795 | 0.641 | 0.757 | 0.788 | 0.615 | 0.56 | 0.542 | 0.506 | 0.584 | 0.745 | 0.684 | 0.596 | 0.57 | 0.404 | 1.03 | 1.05 | 1.03 | 0.916 | 0.785 |
| NCI-H2087 | 0.584 | 0.56 | 0.385 | 0.451 | 0.5 | 0.929 | 0.881 | 0.707 | 0.659 | 0.638 | 0.824 | 0.719 | 0.418 | 0.535 | 0.551 | 1.07 | 1.06 | 1.13 | 1.24 | 1.08 |
| HCC-44 | 0.479 | 0.446 | 0.532 | 0.416 | 0.406 | 1.01 | 1.06 | 1.09 | 1.17 | 1.02 | 0.533 | 0.423 | 0.175 | 0.111 | 0.225 | 0.852 | 0.879 | 0.806 | 0.762 | 0.705 |
